Data: patent publication EP2650284A1, “Heterocyclic derivatives as metabotropic glutamate receptor modulators” (Merz Pharma GmbH & Co. KGaA, priority 2012, dated 2013)

Columns and labels:
[1] = target: T1, human metabotropic glutamate receptor mGluR5 (Homo sapiens, UniProt P41594); test: Cytosolic calcium studies with stably transfected cells (h5CHO), functional assay of mGluR5 receptors; format: cell-based; conditions: for h left shift: h5CHO cells; for EC50: positive modulators, h5CHO cells preincubated with modulator, stimulated by an EC20 concentration of L-glutamate, read-out: hEC50
T1 construct: expressed in transfected cells; host or cells: CHO-K1 (h5CHO), IPTG-inducible
Summary of the method: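 IPTG-induced h5CHO (CHO-K1 expressing human mGluR5) loaded with calcium dye; compounds (0.5% DMSO) added 5 min before agonist. NAM IC50 against L-quisqualate at ~EC80; PAM EC50 with EC20 L-glutamate. FLIPR fluorescence, max-minus-min, % of maximal response, logistic fit.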

mGluR5 binding site = target: T2, mGluR5 binding site (Rattus norvegicus, UniProt P31424); test: [3H]-M-MPEP displacement studies on rat cortical membranes; conditions: Table A3, [3H]-M-MPEP 2 nM, 4°C for 1 h, median, read-out: Ki (MMPEP)
T2 construct: from tissue; host or cells: cortex of adult male Sprague-Dawley rats, membrane preparation
Experimental: Tissue preparation is performed according to Foster & Wong (Br. J. Pharmacol., 1987, 91, 403-409) with some modifications. Anaesthetised male Sprague-Dawley rats (200-250 g, Janvier, Le Genest-Isle, France) are decapitated and their brains are removed rapidly. The cortex is dissected out and processed as described by Parsons, et al. (J. Pharmacol. Exp. Ther., 1997, 283(3): 1264-1275). For isolation of the cell membranes, the cortices are homogenized in 20 volumes of ice-cold 0.32 M sucrose (Sigma-Aldrich, Taufkirchen, Germany) using a glass-Teflon homogenizer. The homogenate is centrifuged at 1000 x g for 10 minutes, the pellet is discarded and the supernatant centrifuged at 20,000 x g for 20 minutes. The resulting pellet is resuspended in 20 volumes of distilled water and centrifuged for 20 minutes at 8000 x g. The supernatant and the buffy coat are then centrifuged six times (48,000 x g for 20 minutes) in the presence of 5 mM Tris-HCl, pH 7.5. All centrifugation steps are carried out at 4°C. After resuspension in 5 volumes of 5 mM Tris-HCl, pH 7.5, the membrane suspension is frozen rapidly at -80°C.
On the day of assay, the membrane suspensions are thawed, centrifuged (48,000 x g for 20 minutes) and then resuspended in 50 mM Tris-HCl, pH 7.5 (assay buffer). The amount of protein in the final membrane preparation is determined according to the method of Lowry, et al. (J. Biol. Chem., 1951, 193, 256-275). The final concentration used for our studies is 400 µg / ml.
The Tecan robotic system designed for binding assays is loaded with the membrane solution, a 96 well stock plate containing the solutions for bound control (buffer/DMSO 10%), unlabeled MPEP (10 µM) for evaluation of non-specific binding, all compounds to be tested (at 20-fold concentrations), various empty 96-well plates for dilutions and the final assay plates, as well as a 96-well plate filled with the radioligand.
Before performing displacement studies, saturation experiments are performed to determine the equilibrium dissociation constant (Kd, Cheng and Prussoff, Biochem. Pharmacol., 1973, 22: 3099-3108) of [^3H]-M-MPEP, which is a parameter for the affinity of the radioligand to the binding site. On the basis of the saturation experiments, a final [^3H]-M-MPEP concentration of 2 nM was selected.
Firstly, the assay plates are loaded with membrane solution and are shaken at 4°C. The mother plates were then prepared by pipetting the compounds (n = 5) into assay buffer/10% DMSO to obtain the desired final concentrations. After transferring radioligand into the assay plates, the compounds are added (including the non-specific binding control containing MPEP). The final DMSO concentration is always 1 %. The assay plates are incubated and shaken at 4°C for 1 h, before the mixture is exhausted as rapidly as possible via a vacuum manifold using the Multiscreen HTS glass fibre (type B) high flow filter plates (Millipore, Schwalbach, Germany) under a constant vacuum of 450 mbar. The membranes are washed four times with cold assay buffer (100 µL). 50 µL of Ultima Gold scintillation cocktail (PerkinElmer) is added to the wet filter plates and incubated at rt overnight before counting the disintegration per minutes using a liquid scintillation counter (MicroBeta, PerkinElmer).
For the evaluation of the test compound binding affinity to the mGluR5 binding site and its potency to displace [^3H]-M-MPEP, the measured radioactivity of the radioligand alone was set as 100% bound control and the non-specific binding of the radioligand represented the 0% control. The residual radioactivity after displacement of the test compound was then corrected with respect to the set controls. Data are given as median IC50 and Ki, respectively.

[2] = Table A3 (SAMs / very weak PAMs), agonist EC50 shift with 10 µM modulator or vehicle
[3] = Table A1, left shift of agonist EC50, dose response curves in the presence of 10 µM modulator or vehicle

T2 sequence (P31424 21-1203): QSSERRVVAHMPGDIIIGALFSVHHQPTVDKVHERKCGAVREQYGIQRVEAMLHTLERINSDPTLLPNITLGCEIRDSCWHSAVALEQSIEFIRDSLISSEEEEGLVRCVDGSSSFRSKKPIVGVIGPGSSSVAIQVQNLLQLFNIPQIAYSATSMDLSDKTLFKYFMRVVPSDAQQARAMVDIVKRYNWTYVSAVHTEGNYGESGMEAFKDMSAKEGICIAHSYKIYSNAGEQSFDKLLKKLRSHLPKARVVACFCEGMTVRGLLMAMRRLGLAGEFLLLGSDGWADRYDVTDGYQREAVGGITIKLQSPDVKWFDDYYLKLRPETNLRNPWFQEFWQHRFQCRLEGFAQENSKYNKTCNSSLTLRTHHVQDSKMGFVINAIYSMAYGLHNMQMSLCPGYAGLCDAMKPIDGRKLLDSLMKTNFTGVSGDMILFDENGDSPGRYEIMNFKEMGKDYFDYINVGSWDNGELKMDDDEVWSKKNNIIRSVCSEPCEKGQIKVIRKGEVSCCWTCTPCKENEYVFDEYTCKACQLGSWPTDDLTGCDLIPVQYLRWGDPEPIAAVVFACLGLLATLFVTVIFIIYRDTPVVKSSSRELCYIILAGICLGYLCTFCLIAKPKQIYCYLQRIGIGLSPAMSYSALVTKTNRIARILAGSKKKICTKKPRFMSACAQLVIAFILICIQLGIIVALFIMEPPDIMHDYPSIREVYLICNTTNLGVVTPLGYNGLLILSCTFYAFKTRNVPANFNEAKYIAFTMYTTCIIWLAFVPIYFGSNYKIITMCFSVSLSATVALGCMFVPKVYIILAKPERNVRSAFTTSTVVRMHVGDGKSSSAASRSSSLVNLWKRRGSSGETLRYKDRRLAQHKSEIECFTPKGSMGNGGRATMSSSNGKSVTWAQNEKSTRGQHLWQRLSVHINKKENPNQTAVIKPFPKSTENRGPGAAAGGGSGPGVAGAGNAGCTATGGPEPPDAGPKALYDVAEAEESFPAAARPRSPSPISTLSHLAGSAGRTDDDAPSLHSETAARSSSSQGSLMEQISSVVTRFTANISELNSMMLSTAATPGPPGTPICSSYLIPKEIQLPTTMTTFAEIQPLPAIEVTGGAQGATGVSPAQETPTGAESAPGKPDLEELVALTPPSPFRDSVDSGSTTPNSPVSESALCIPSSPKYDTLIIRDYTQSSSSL
T1 sequence (P41594 21-1212): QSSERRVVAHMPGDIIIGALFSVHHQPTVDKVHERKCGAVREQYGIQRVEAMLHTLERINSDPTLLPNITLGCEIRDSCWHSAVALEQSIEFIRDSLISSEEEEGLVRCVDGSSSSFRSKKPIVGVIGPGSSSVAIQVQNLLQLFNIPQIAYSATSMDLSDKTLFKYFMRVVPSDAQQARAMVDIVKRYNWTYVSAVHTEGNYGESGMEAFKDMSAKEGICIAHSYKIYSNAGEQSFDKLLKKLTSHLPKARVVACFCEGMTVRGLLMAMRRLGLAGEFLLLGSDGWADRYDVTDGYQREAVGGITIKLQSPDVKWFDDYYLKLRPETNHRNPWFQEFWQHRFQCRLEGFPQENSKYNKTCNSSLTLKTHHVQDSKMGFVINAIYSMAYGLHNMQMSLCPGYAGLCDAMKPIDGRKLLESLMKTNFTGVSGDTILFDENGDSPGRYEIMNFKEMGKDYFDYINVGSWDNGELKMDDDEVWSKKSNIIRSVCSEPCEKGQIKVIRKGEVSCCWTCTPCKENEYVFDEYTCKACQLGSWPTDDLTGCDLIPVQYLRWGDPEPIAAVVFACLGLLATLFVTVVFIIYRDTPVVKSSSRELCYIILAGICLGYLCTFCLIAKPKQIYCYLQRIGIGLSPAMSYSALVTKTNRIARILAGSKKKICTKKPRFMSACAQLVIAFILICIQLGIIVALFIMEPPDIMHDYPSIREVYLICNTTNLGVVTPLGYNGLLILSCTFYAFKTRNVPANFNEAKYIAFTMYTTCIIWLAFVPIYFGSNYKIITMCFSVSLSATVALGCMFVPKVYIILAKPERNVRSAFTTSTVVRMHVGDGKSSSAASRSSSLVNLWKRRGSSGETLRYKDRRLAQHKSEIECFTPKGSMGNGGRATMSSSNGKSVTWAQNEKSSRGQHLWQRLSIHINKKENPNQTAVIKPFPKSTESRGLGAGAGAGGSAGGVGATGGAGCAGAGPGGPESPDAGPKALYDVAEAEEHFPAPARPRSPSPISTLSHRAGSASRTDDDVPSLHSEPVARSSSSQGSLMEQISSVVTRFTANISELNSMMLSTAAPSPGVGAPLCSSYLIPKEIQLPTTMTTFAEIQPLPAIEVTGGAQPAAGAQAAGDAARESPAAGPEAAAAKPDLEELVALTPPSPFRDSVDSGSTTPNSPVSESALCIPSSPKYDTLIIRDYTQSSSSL

Compound | h left shift [1, 2] | Ki (mGluR5 binding site) | h left shift [1, 3] | EC50 ([1]; Table A1)
CCCN1CC2(CCCc3ncc(C#Cc4cccc(C)c4)cc32)OC1=O (racemic) [Example 64, (rac)-3-Propyl-3'-(m-tolylethynyl)-7',8'-dihydro-6'H-spiro[oxazolidine-5,5'-quinolin]-2-one] | 1.2-fold | 399 nM | – | –
CCCN1CC2(CCCc3ncc(C#Cc4cccc(F)c4)cc32)OC1=O (racemic) [Example 66, (rac)-3'-((3-Fluorophenyl)ethynyl)-3-propyl-7',8'-dihydro-6'H-spiro[oxazolidine-5,5'-quinolin]-2-one] | 1.6-fold | 857 nM | – | –
CCCN1CCO[C@@H]2c3cc(C#Cc4cccc(C)c4)cnc3CC[C@@H]21 (racemic) [Example 21, (rac)-cis-4-Propyl-9-(m-tolylethynyl)-3,4,4a,5,6,10b-hexahydro-2H-[1,4]oxazino[2,3-f]quinoline] | 1.3-fold | 1720 nM | – | –
CCCN1CCO[C@@H]2c3cc(C#Cc4ccccc4)cnc3CC[C@@H]21 (single isomer, unassigned) [Example 17, cis-9-(Phenylethynyl)-4-propyl-3,4,4a,5,6,10b-hexahydro-2H-[1,4]oxazino[2,3-f]quinoline] | 2.3-fold | 3620 nM | 2.3-fold | 388 nM

Other lines, results leading:

h left shift [1, 2] | Ki (mGluR5 binding site) | h left shift [1, 3] | EC50 ([1]; Table A1) | Compound
1.3-fold | 289 nM | – | – | COC(=O)N1CC[C@H]2CCc3ncc(C#Cc4ccccc4)cc3[C@H]21 (racemic) [Example 29, (rac)-cis-Methyl 8-(phenylethynyl)-2,3,3a,4,5,9b-hexahydro-1H-pyrrolo[2,3-f]quinoline-1-carboxylate]
1.4-fold | 395 nM | – | – | CC(C)C(=O)N1CCc2ncc(C#Cc3ccccc3)cc2C1 [Example 33, 2-Methyl-1-(3-(phenylethynyl)-7,8-dihydro-1,6-naphthyridin-6(5H)-yl)propan-1-one]
2.3-fold | 204 nM | 2.3-fold | 20.9 nM | COC1CCCc2ncc(C#Cc3ccccc3)cc21 (single isomer, unassigned) [Example 2, 5-Methoxy-3-(phenylethynyl)-5,6,7,8-tetrahydroquinoline]
1.3-fold | 56.5 nM | – | – | CCOC(=O)N1CCc2ncc(C#Cc3ccccc3)cc2C1 [Example 40, Ethyl 3-(phenylethynyl)-7,8-dihydro-1,6-naphthyridine-6(5H)-carboxylate]
